pEC50, pIC50: −log10 of the molar value.
Key:
recombinant human mTOR = recombinant human mTOR (Homo sapiens (Human), UniProt P42345); assay: Test 1: mTOR ATP-binding assay based on TR-FRET; conditions: GST-tagged truncated human mTOR, tracer-314, TR-FRET
Description: Test 1: mTOR ATP-Binding Assay Based on TR-FRET for Recombinant Human mTOR
2. The final volume of the assay is 10 μL and the order of addition is as follows:
50 nL of compounds dilution;
Incubated for 60 minutes at room temperature.
TR-FRET measured in Biotek Synergy2 reader at: • Excitation 340 nm/emission 665 nm • Excitation 340 nm/emission 620 nm
The following final concentrations are used:
1 nM Europium anti-GST antibody;
The following controls are used:
3. IC50 determinations may be performed as follows:
The Emission ratio is converted to percentage of inhibition for each compound concentration. IC50 values are calculated by fitting a sigmoidal dose-response curve to a plot of assay readout over compound concentration. All fits and analysis are performed with the program XLfit4 (ID Business Solutions, Guildford, UK).

[1] = tested on: cellular mTOR kinase activity (phosphorylation of Thr 389 of S6K1) in TSC1-/- MEFs; assay: Test 2: Cellular mTOR assay (P-P70S6K T389 Surefire); format: cell-based; conditions: Mus musculus, 1 h, read-out: Test 2: T389 cellular assay IC50 (nM)
Description: Test 2: Cellular mTOR Assay
30 μl are added per well to a 384 well-plate using a Multidrop instrument (Thermo scientific), resulting in 4000 cells/well. The plates are incubated at 37° C./5% CO2 for 20 hours (to allow for settling and adherance to the surface).
Eight 3-fold serial dilutions of test-compounds (beginning at 1.8 mM) are prepared in 90% DMSO and compiled on 384 well master plates (Greiner). A pan-pPI3K/mTOR inhibitor (0.8 mM of 8-(6-methoxy-pyridin-3-yl)-3-methyl-1-(4-piperazin-1-yl-3-trifluoromethyl-phenyl)-1,3-dihydro-imidazo[4,5-c]quinolin-2-one in 90% DMSO) is added to the wells for the low control. 90% DMSO is added to the wells for the high controls. Compounds are provided as 250 nl shots (Hummingbird) in 384 well-polypropylene microplates (compound plates). 50 μl of growth medium is added to the compound plates (dilution 1:200) with the Multidrop. After shaking (1 min at 2000 rpm), 10 μl of the first dilution is then transferred to the cell plate with a Matrix Plate Mate 2×3 pipettor (final dilution 1:4). After 1 hour of treatment, medium is removed from the plate and 20 μl of Surefire lysis buffer is added per well with the Multidrop.
Cell lysates are frozen for 15 minutes, thawed with shaking and transferred to the experimental 384 well-Proxiplate (5 μl/well) for the P-P70S6K (T389) Surefire assay (Perkin Elmer #TGR70S50). The first mix is composed of the reaction buffer (containing the specific antibody), the activation buffer and the acceptor beads (40 vol, 10 vol and 1 vol respectively). 5 μl per well is added to the lysates with a Zephyr® SPE Workstation (Caliper Life Sciences) and incubated for 2 hours with shaking at room temperature. After this incubation time, the second mix of dilution buffer and donor beads (20 vol and 1 vol respectively) is added to the plate with the same instrument (2 μl/well). After 2 hours, the plate can be read with an EnVision® Multilabel Reader (Perkin Elmer). Since the beads are light sensitive, their transfer and incubation is executed in a dark room (greenlight).
The raw data is used to generate dose response curves for test compounds and IC50 values calculated therefrom.

H4 mCherry-GFP-LC3 cells = assay: Test 3: Autophagy assay (mCherry-GFP-LC3 reporter, high-content imaging); format: cell-based, human; conditions: 16-18 h treatment, mCherry-positive LC3 puncta/cell; for pEC50: Homo sapiens
Excerpt: Autophagy is a catabolic pathway that degrades bulk cytosol in lysosomal compartments enabling amino acids and fatty acids to be recycled. One of the key regulators of autophagy is the mammalian target of rapamycin (mTOR), a conserved serine/threonine kinase which suppresses the initiation of the autophagic process when nutrients, growth factors and energy are available. To quantify autophagy induction by mTOR inhibitors, we use a mCherry-GFP-LC3 reporter which is amenable to retroviral delivery into mammalian cells, stable expression and analysis by fluorescence microscopy.
The amino acid sequence of the mCherry-GFP-LC3 construct is shown below (SEQ ID NO: 1). The mCherry sequence is underlined, GFP sequence is in bold and LC3A sequence is boxed.
Described hereinafter is an imaging protocol and image recognition algorithm to visualize and measure changes in the autophagic pathway.
Quantification of Autophagy Using High-Content Imaging and Analysis
• 1. Day 0: Cell plating. Subconfluent H4 mCherry-GFP-LC3 cells are harvested by trypsinization, resuspended in growth medium, and counted (H4 cells: Human neuroglioma cell line (ATCC)). A cell suspension of 66′000 cells/mL is prepared and 30 μL are added into the wells of a 384-well plate using an electronic multichannel pipette. […] The cell plates are briefly spun down and placed at 37° C. and 5% CO2. • 2. Day 1: Compound treatment. Compound dose responses are prepared in DMSO. The dose responses are then diluted 1:50 in medium. 10 ul of the diluted compound is added to 30 ul of cells, yielding a final 1:200 dilution of the original compound and final of 0.5% DMSO. Compound-treatments are performed in triplicates. The 384-well plates are placed at 37° C. and 5% CO2. Compound treatment is performed for 16-18 h (see Note 1). • 3. Day 2: Cell fixation. Cells are fixed by adding 10 μL/well 5× concentrated Mirsky's fixative supplemented with 25 μg/mL Hoechst33342. […] The 384-well plate is briefly spun down and incubated for 1 h at room temperature. Cells are then washed using a 384-well plate washer using a protocol which aspirates the volume down to 10 μL/well before dispensing 100 μL/well 1×TBS. Aspiration and dispensing steps are repeated 4 times and a final volume of 100 μL/well is left. The plate is sealed using an adhesive PCR foil. • 4. Imaging. The bottom of the plate is cleaned with 70% ethanol and then imaged using the InCell 1000 automated epifluorescence microscope. 20× magnification is used and 4 different areas (fields) are imaged per well, this typically captures a total of around 400 cells per well. Hoechst33342 images are acquired using an excitation of 360 nm (D360_40x filter), an emission of 460 nm (HQ460_40M filter) and an exposure time of 150 ms. GFP images are acquired using an excitation of 475 nm (S475_20x filter), an emission of 535 nm (HQ535_50M filter) and an exposure time of 1 s. mCherry images are acquired using an excitation of 535 nm (HQ535_50x filter), an emission of 620 nm (HQ620_60M filter) and an exposure time of 1 s. A quadruple band pass mirror is used for all images. • 5. Image analysis. The InCell Analysis software is used to analyze the images using the Multi Target Analysis algorithm. First, nuclei are detected in the Hoechst33342 image using top-hat segmentation and a minimal nuclear area of 50 μm^2. Cells are defined using a collar of 10 μm around the nuclei. Second, puncta (organelles) are identified in the mCherry image inside the cells using multi-top-hat segmentation. Third, the mask of the mCherry puncta is transferred onto the GFP image. Fourth, the GFP fluorescence intensity inside the mCherry puncta mask is measured (reference intensity). • 6. The ‘organelles’ parameter reflects mCherry-positive puncta of the mCherry-GFP-LC3 reporter and is used to calculate ‘LC3 puncta/cell’. […]

recombinant human mTOR, sequence (P42345 1360-2549): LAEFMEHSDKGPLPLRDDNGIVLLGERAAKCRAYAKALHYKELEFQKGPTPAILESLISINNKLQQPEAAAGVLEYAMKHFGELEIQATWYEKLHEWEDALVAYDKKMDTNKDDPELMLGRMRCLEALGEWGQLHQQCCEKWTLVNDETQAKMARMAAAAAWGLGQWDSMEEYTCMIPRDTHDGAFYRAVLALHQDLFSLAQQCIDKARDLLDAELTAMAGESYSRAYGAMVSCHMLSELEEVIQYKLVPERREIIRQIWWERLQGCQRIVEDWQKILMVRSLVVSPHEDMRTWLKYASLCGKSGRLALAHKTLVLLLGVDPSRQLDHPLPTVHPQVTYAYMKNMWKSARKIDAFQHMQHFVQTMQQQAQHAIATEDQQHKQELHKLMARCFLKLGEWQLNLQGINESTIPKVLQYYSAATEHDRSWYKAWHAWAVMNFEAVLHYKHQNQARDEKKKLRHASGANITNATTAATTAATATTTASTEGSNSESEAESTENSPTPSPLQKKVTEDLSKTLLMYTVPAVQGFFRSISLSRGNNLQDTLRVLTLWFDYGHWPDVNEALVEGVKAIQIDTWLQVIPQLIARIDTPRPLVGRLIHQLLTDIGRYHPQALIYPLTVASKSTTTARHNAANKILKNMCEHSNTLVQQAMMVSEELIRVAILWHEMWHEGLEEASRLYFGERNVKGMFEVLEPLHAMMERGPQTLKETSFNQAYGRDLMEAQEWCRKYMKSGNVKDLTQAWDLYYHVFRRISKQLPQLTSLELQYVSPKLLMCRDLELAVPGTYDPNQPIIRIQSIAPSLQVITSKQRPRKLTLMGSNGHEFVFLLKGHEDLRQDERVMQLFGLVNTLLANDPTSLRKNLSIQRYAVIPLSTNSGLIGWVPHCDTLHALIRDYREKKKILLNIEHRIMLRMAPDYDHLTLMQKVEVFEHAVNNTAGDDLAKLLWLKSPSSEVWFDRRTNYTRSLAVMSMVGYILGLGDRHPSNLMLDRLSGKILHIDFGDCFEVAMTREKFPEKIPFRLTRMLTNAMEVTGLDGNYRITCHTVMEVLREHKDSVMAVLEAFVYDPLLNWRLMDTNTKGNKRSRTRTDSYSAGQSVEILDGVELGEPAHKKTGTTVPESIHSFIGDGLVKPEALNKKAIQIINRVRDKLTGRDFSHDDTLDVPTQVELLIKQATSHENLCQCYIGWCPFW

What does the source list for `CCC[C@@H]1COCCN1c1nc(N2CCOC[C@H]2C)c2nc(-c3cccc4[nH]ccc34)[nH]c2n1` [Example 12, 8-(1H-Indol-4-yl)-6-((R)-3-methyl-morpholin-4-yl)-2-((R)-3-propyl-morpholin-4-yl)-9H-purine]?
pIC50 (recombinant human mTOR): 6.71; IC50 [1]: 534 nM; pEC50 (H4 mCherry-GFP-LC3 cells): 6.17

Which results are given for `C[C@@H]1COCCN1c1nc(N2CCN(C)CC2)nc2[nH]c(-c3cccc4[nH]ccc34)nc12` [Example 16, 8-(1H-Indol-4-yl)-6-((R)-3-methyl-morpholin-4-yl)-2-(4-methyl-piperazin-1-yl)-9H-purine]?
pIC50 (recombinant human mTOR): 6.51; IC50 [1]: 259 nM; Test 3: Autophagy EC50 (nM) (H4 mCherry-GFP-LC3 cells): n.m.

`COC(=O)c1cc(-c2nc3c(N4CCOC[C@H]4C)nc(N4CCOC[C@H]4C)nc3[nH]2)c2cc[nH]c2c1` [Example 32, 4-[2,6-Bis-((R)-3-methyl-morpholin-4-yl)-9H-purin-8-yl]-1H-indole-6-carboxylic acid methyl ester] was tested. Which pIC50 (recombinant human mTOR) did it give?
Its pIC50 is 6.27.

And the IC50 [1]?
Its IC50 is 1120 nM.

What about the pEC50 (H4 mCherry-GFP-LC3 cells) of the same compound?
Its pEC50 is less than 5.22.

From patent US9334271B2, “Purine derivatives and their use in the treatment of disease” (Novarits AG, priority 2012, dated 2016)
